From ChEMBL document CHEMBL1201862, “PubChem BioAssay data set” (2004) come the findings set out here.

The source made the active and inactive calls.

Experiment [1] concerns the target T1, RNA-binding protein pos-1 (Caenorhabditis elegans, UniProt G5EF15).
T1 sequence (G5EF15 whole entry): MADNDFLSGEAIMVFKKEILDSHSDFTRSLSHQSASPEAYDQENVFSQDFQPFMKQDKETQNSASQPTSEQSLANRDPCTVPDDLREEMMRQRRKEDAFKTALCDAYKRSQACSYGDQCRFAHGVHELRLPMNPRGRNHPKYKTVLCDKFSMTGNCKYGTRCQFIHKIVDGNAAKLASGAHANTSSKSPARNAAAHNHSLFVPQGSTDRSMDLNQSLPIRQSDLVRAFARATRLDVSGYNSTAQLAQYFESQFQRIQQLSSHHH
Put plainly: inhibitors of POS-1/mex-3 RNA binding, dose response, biochemical, fluorescence polarization (AID 1964).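 Further: purified POS-1 fused to maltose binding protein made in E. coli; potency of compounds blocking POS-1 binding to fluorescent RNA.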 In general terms: Polarisation of emitted light reports the rotation of a fluorescent probe.

Experiment [2] addresses T2, Zinc finger protein mex-5 (Caenorhabditis elegans, UniProt Q9XUB2).
T2 sequence (Q9XUB2 whole entry): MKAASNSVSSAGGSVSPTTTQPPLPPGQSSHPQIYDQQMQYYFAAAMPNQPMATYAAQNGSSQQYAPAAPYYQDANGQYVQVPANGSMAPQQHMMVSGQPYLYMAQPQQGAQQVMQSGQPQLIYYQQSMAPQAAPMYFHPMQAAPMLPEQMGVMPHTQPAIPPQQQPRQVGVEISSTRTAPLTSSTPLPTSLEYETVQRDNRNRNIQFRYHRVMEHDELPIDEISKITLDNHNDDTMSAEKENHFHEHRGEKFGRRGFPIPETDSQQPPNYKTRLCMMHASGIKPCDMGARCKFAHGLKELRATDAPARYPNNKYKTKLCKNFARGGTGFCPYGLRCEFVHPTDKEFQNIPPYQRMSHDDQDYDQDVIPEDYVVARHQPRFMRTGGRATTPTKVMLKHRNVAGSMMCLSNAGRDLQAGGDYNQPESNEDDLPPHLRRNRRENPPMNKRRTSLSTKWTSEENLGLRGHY
Kind of experiment: MEX-5/TCR-2 RNA interaction inhibitors, dose response, biochemical, C. elegans, fluorescence polarization (AID 1960).

Experiment [3] has as its target Induced myeloid leukemia cell differentiation protein Mcl-1 (Homo sapiens, UniProt Q07820). Format: functional.
In experiment [4] the target is T3, Hexokinase HKDC1 (Homo sapiens, UniProt Q2TB90).
T3 sequence (Q2TB90 whole entry): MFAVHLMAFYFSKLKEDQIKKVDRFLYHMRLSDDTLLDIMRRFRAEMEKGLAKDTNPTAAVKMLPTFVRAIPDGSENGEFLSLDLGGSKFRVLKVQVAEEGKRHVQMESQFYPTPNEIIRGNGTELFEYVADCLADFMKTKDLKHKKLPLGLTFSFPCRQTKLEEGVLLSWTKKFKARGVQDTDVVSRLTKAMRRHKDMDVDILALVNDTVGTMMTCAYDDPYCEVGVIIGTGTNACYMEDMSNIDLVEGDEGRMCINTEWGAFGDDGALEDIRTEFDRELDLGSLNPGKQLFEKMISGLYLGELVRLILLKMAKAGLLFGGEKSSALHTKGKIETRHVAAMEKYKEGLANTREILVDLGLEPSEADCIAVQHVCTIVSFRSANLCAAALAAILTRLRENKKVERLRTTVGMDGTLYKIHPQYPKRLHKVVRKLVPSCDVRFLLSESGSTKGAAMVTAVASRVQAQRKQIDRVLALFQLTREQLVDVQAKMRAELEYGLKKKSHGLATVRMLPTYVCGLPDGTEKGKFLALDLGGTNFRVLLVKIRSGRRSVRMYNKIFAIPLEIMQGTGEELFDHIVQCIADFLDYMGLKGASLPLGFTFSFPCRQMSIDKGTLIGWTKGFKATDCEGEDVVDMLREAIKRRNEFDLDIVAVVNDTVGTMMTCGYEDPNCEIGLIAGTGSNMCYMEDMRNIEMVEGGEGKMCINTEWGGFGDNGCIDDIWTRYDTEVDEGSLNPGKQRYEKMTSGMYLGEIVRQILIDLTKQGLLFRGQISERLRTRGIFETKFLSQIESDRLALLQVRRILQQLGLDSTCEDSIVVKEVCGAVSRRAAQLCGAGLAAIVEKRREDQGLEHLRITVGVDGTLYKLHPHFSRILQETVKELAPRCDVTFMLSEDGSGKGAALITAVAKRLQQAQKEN
Kind of experiment: HKDC1 hexokinase inhibitors, dose response, biochemical, W721R variant (AID 504729). In kind it is functional.

For experiment [5], the target named is T4, Mannose-6-phosphate isomerase (Homo sapiens, UniProt P34949).
T4 sequence (P34949 whole entry): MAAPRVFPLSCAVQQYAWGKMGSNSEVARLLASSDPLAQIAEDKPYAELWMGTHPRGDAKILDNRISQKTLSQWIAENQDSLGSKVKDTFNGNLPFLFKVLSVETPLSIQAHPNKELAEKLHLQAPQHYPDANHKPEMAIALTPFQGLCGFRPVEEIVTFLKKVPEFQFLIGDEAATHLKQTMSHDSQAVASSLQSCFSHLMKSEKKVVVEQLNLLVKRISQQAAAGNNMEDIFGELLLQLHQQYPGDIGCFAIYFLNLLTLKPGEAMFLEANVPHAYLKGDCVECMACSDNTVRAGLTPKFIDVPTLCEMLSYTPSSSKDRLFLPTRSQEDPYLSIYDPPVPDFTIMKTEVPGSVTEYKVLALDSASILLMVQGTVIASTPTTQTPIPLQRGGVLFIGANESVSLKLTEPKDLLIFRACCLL
Put plainly: human PMI inhibitors, high substrate, primary screen, biochemical, fluorescence intensity, high mannose 6-phosphate (AID 1220).

Chain of Induced myeloid leukemia cell differentiation protein Mcl-1 (Q07820 whole entry): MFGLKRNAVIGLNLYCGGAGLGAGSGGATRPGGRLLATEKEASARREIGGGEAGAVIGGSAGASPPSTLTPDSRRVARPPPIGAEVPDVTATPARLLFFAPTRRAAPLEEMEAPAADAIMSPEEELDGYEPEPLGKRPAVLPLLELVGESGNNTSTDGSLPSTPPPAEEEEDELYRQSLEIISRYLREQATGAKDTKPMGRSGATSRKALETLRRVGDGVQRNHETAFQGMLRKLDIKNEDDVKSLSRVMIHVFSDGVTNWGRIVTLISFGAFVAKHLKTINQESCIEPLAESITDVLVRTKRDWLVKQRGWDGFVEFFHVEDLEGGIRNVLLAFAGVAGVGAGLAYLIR

As for `Cc1cc(C)c(S(=O)(=O)Nc2cc(SCC(=O)O)c(O)c3ccccc23)cc1C`, the results for the EC50 in experiment [1] and in experiment [2] were > 300 µM (not active) and 38.6 µM (active), respectively. Also, the results for the IC50 in experiment [3] and in experiment [4] were 10.5 µM (active) and 4.72 µM (active), respectively.
`O=C(O)c1cc(N2N=C(C(F)(F)F)/C(=C/C=C/c3ccco3)C2=O)ccc1Cl`: the IC50 – broadly, the concentration that inhibits the measured activity by half – in experiment [3] is 4.69 µM (active); in experiment [5], > 50 µM (not active); in experiment [4], 5.66 µM (active).
With `O=C(/C=C/c1ccco1)NC(=S)Nc1cccc(C(=O)O)c1`, the EC50 – broadly, the concentration giving half of the maximal effect – was 8.57 µM (active) in experiment [1] and 8.73 µM (active) in experiment [2].
For the molecule `CNCc1ccccc1Sc1ccc(O)c(O)c1`, the figures for the EC50 in experiment [1] and in experiment [2] were 34.8 µM (active) and 22.6 µM (inconclusive), respectively. For the same molecule, the IC50 in experiment [5] is 25.9 µM (active).
